Test system: A375 multi-cell spheroids with HUVEC/MSC, viability
Assay: Anticancer human tumor A375 cell line growth inhibition [GQUAD];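 further: spheroids exposed to compounds for seven days before readout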
Details: for IC50: curve of first compound; for viability, T/C: stronger effect = lower value
Procedure, shortened: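 Multi-cell-type spheroids of tumor cells with HUVEC and mesenchymal stem cells, treated with drug combinations. Concentrations descend in half-log steps from near clinical Cmax, or from 10 microM where Cmax is unknown; viability read-out.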

[1] = second compound 0.0316 µM, first compound 0.0316 µM
[2] = second compound 0.0316 µM, first compound 0.1 µM
[3] = second compound 0.0316 µM, first compound 0.316 µM
[4] = second compound 0.0316 µM, first compound 1 µM
[5] = second compound 0.0316 µM, first compound 3.16 µM
[6] = second compound 0.0316 µM, first compound 10 µM
[7] = second compound 0.1 µM, first compound 0.0316 µM
[8] = second compound 0.1 µM, first compound 0.1 µM
[9] = second compound 0.1 µM, first compound 0.316 µM
[10] = second compound 0.1 µM, first compound 1 µM
[11] = second compound 0.1 µM, first compound 3.16 µM
[12] = second compound 0.1 µM, first compound 10 µM
[13] = second compound 0.316 µM, first compound 0.0316 µM
[14] = second compound 0.316 µM, first compound 0.1 µM
[15] = second compound 0.316 µM, first compound 0.316 µM
[16] = second compound 0.316 µM, first compound 1 µM
[17] = second compound 0.316 µM, first compound 3.16 µM
[18] = second compound 0.316 µM, first compound 10 µM
[19] = second compound 1 µM, first compound 0.0316 µM
[20] = second compound 1 µM, first compound 0.1 µM
[21] = second compound 1 µM, first compound 0.316 µM
[22] = second compound 1 µM, first compound 1 µM
[23] = second compound 1 µM, first compound 3.16 µM
[24] = second compound 1 µM, first compound 10 µM
[25] = second compound 3.16 µM, first compound 0.0316 µM
[26] = second compound 3.16 µM, first compound 0.1 µM
[27] = second compound 3.16 µM, first compound 0.316 µM
[28] = second compound 3.16 µM, first compound 1 µM
[29] = second compound 3.16 µM, first compound 3.16 µM
[30] = second compound 3.16 µM, first compound 10 µM
[31] = second compound 10 µM, first compound 0.0316 µM
[32] = second compound 10 µM, first compound 0.1 µM
[33] = second compound 10 µM, first compound 0.316 µM
[34] = second compound 10 µM, first compound 1 µM
[35] = second compound 10 µM, first compound 3.16 µM
[36] = second compound 10 µM, first compound 10 µM

COc1cc(C2c3cc4c(cc3C(OC3OC5COC(C)OC5C(O)C3O)C3COC(=O)C23)OCO4)cc(OC)c1O (stereo not drawn) + CN(C)c1ccc(Nc2c3ccc(NC(=O)CCN4CCCC4)cc3nc3cc(NC(=O)CCN4CCCC4)ccc23)cc1
IC50 (second compound 0.0316 µM): 1020 nM
IC50 (second compound 0.1 µM): 966 nM
IC50 (second compound 0.316 µM): 1200 nM
IC50 (second compound 1 µM): 1410 nM
IC50 (second compound 3.16 µM): 1580 nM
IC50 (second compound 10 µM): 1460 nM
viability, T/C [1]: 99%
viability, T/C [2]: 105%
viability, T/C [3]: 75.3%
viability, T/C [4]: 52.5%
viability, T/C [5]: 27.5%
viability, T/C [6]: 19%
viability, T/C [7]: 109%
viability, T/C [8]: 103%
viability, T/C [9]: 71.6%
viability, T/C [10]: 50.2%
viability, T/C [11]: 31.1%
viability, T/C [12]: 18%
viability, T/C [13]: 107%
viability, T/C [14]: 107%
viability, T/C [15]: 74.2%
viability, T/C [16]: 55.1%
viability, T/C [17]: 33%
viability, T/C [18]: 18.2%
viability, T/C [19]: 117%
viability, T/C [20]: 105%
viability, T/C [21]: 86.3%
viability, T/C [22]: 58.6%
viability, T/C [23]: 30.9%
viability, T/C [24]: 18.1%
viability, T/C [25]: 103%
viability, T/C [26]: 103%
viability, T/C [27]: 84.5%
viability, T/C [28]: 60.1%
viability, T/C [29]: 35.2%
viability, T/C [30]: 18.8%
viability, T/C [31]: 105%
viability, T/C [32]: 99.9%
viability, T/C [33]: 80.6%
viability, T/C [34]: 56.9%
viability, T/C [35]: 35.9%
viability, T/C [36]: 20.1%

COc1cccc2c1C(=O)c1c(O)c3c(c(O)c1C2=O)CC(O)(C(=O)CO)CC3OC1CC(N)C(O)C(C)O1 (stereo not drawn) + CN(C)c1ccc(Nc2c3ccc(NC(=O)CCN4CCCC4)cc3nc3cc(NC(=O)CCN4CCCC4)ccc23)cc1
IC50 (second compound 0.0316 µM): 196 nM
IC50 (second compound 0.1 µM): 214 nM
IC50 (second compound 0.316 µM): 217 nM
IC50 (second compound 1 µM): 222 nM
IC50 (second compound 3.16 µM): 229 nM
IC50 (second compound 10 µM): 233 nM
viability, T/C [1]: 107%
viability, T/C [2]: 70.2%
viability, T/C [3]: 34%
viability, T/C [4]: 18.7%
viability, T/C [5]: 2.21%
viability, T/C [6]: 0.12%
viability, T/C [7]: 105%
viability, T/C [8]: 75.2%
viability, T/C [9]: 34.6%
viability, T/C [10]: 18.5%
viability, T/C [11]: 2.59%
viability, T/C [12]: 0.11%
viability, T/C [13]: 110%
viability, T/C [14]: 79.7%
viability, T/C [15]: 32.2%
viability, T/C [16]: 18.3%
viability, T/C [17]: 2.01%
viability, T/C [18]: 0.1%
viability, T/C [19]: 107%
viability, T/C [20]: 80.7%
viability, T/C [21]: 33.2%
viability, T/C [22]: 17.7%
viability, T/C [23]: 2.55%
viability, T/C [24]: 0.13%
viability, T/C [25]: 112%
viability, T/C [26]: 82%
viability, T/C [27]: 34.2%
viability, T/C [28]: 18.6%
viability, T/C [29]: 2.88%
viability, T/C [30]: 0.15%
viability, T/C [31]: 103%
viability, T/C [32]: 77.5%
viability, T/C [33]: 38.3%
viability, T/C [34]: 17.9%
viability, T/C [35]: 4.36%
viability, T/C [36]: 0.25%

Nc1ccn(C2OC(CO)C(O)C2(F)F)c(=O)n1 (stereo not drawn) + CN(C)c1ccc(Nc2c3ccc(NC(=O)CCN4CCCC4)cc3nc3cc(NC(=O)CCN4CCCC4)ccc23)cc1
IC50 (second compound 0.0316 µM): < 31.6 nM
IC50 (second compound 0.1 µM): < 31.6 nM
IC50 (second compound 0.316 µM): < 31.6 nM
IC50 (second compound 1 µM): < 31.6 nM
IC50 (second compound 3.16 µM): < 31.6 nM
IC50 (second compound 10 µM): < 31.6 nM
viability, T/C [1]: 13.1%
viability, T/C [2]: 5.96%
viability, T/C [3]: 5.05%
viability, T/C [4]: 6.71%
viability, T/C [5]: 7.93%
viability, T/C [6]: 7.84%
viability, T/C [7]: 12.4%
viability, T/C [8]: 6.04%
viability, T/C [9]: 6.62%
viability, T/C [10]: 6.98%
viability, T/C [11]: 7.52%
viability, T/C [12]: 8.82%
viability, T/C [13]: 13.4%
viability, T/C [14]: 5.96%
viability, T/C [15]: 6.92%
viability, T/C [16]: 7.41%
viability, T/C [17]: 8.24%
viability, T/C [18]: 9.65%
viability, T/C [19]: 11%
viability, T/C [20]: 6.99%
viability, T/C [21]: 6.31%
viability, T/C [22]: 6.93%
viability, T/C [23]: 7.59%
viability, T/C [24]: 10.1%
viability, T/C [25]: 13.2%
viability, T/C [26]: 6.34%
viability, T/C [27]: 6.54%
viability, T/C [28]: 7.74%
viability, T/C [29]: 8.41%
viability, T/C [30]: 9.18%
viability, T/C [31]: 11.4%
viability, T/C [32]: 5.96%
viability, T/C [33]: 6.62%
viability, T/C [34]: 6.28%
viability, T/C [35]: 9.34%
viability, T/C [36]: 7.97%

O=c1[nH]cc(F)c(=O)[nH]1 + CN(C)c1ccc(Nc2c3ccc(NC(=O)CCN4CCCC4)cc3nc3cc(NC(=O)CCN4CCCC4)ccc23)cc1
IC50 (second compound 0.0316 µM): > 10000 nM
IC50 (second compound 0.1 µM): > 10000 nM
IC50 (second compound 0.316 µM): > 10000 nM
IC50 (second compound 1 µM): > 10000 nM
IC50 (second compound 3.16 µM): > 10000 nM
IC50 (second compound 10 µM): > 10000 nM
viability, T/C [1]: 98.7%
viability, T/C [2]: 107%
viability, T/C [3]: 97.2%
viability, T/C [4]: 106%
viability, T/C [5]: 109%
viability, T/C [6]: 99.3%
viability, T/C [7]: 99.8%
viability, T/C [8]: 104%
viability, T/C [9]: 99.3%
viability, T/C [10]: 103%
viability, T/C [11]: 106%
viability, T/C [12]: 96.8%
viability, T/C [13]: 112%
viability, T/C [14]: 102%
viability, T/C [15]: 97.8%
viability, T/C [16]: 103%
viability, T/C [17]: 107%
viability, T/C [18]: 92.9%
viability, T/C [19]: 108%
viability, T/C [20]: 100%
viability, T/C [21]: 94.2%
viability, T/C [22]: 104%
viability, T/C [23]: 105%
viability, T/C [24]: 96%
viability, T/C [25]: 108%
viability, T/C [26]: 98.1%
viability, T/C [27]: 101%
viability, T/C [28]: 99.1%
viability, T/C [29]: 100%
viability, T/C [30]: 95.4%
viability, T/C [31]: 106%
viability, T/C [32]: 94.4%
viability, T/C [33]: 101%
viability, T/C [34]: 102%
viability, T/C [35]: 105%
viability, T/C [36]: 98.4%
